Here are results for one compound from US12364699B2, “Method of treating hair loss disorders” (Sun Pharmaceutical Industries, Inc., priority 2023, dated 2025).

The test system of data set [1] is subjects with AA. The data set can be described thus: Open-label extension (OLE) studies: safety. The format is in vivo, human. From the text:
(§1) The qualifying clinical trials including the following: 1. NCT03137381; 2. NCT03811912; 3. NCT03941548; 4. NCT04784533; 5. NCT04518995; and 6. NCT04797650 (all available a at https://clinicaltrials.gov).

For data set [2], the system named is adult subjects with moderate to severe AA. The data set can be described thus: Phase III trial: Hair Satisfaction Patient Reported Outcome (SPRO). Conditions: for percentage of subjects with a ≥2 point change from baseline on SPRO: 12 mg BID. The format is in vivo, human. From the text:
The SPRO is a single-item questionnaire answered by the subject and designed to measure how satisfied Alopecia Areata subjects are with their hair at the time of the assessment. Subjects answer questions on a scale of 1 to 5, representing “Very satisfied” to “Very dissatisfied.” Satisfaction categories 1-5 of the scale were defined as follows: 1=“Very Satisfied”; 2=“Satisfied”; 3=“Neither Satisfied nor Dissatisfied”; 4=Dissatisfied”; and 5=“Very Dissatisfied”.
The results of the SPRO was analyzed in three different ways: 1) the percentage of responders, 2) the change from baseline, and 3) the percentage of subjects achieving a ≥2.0 point change from baseline.
A Phase III trial was conducted to assess the efficacy and safety of CTP-543 in adult subjects with moderate to severe AA. Approximately 440 adult male and female subjects 18 to 65 years of age, inclusive, with moderate to severe AA participated in the study. Subjects with definitive diagnosis of AA, and at least 50% hair loss, as defined by a SALT score ≥50, who met all of the inclusion criteria and none of the exclusion criteria participated in the study.
The Screening Period lasted up to 28 days prior to initiation of study drug. […] Randomization was stratified by scalp hair loss into 1 of the following 2 categories: 1) partial scalp hair loss (SALT ≥50 and <95), 2) complete or near complete scalp hair loss (SALT ≥95).
The key secondary efficacy endpoints were the percentage of responders (defined as “satisfied” or “very satisfied”) on the Hair Satisfaction Patient Reported Outcome (SPRO) scale at Week 24, 20, 16, 12, and 8.
The Hair Satisfaction Patient Reported Outcome (SPRO) was also determined based on the 5-point SPRO scale from baseline through Week 24 among primary endpoint responders. The subjects that received a SALT score ≤20 at Week 24 in the THRIVE-AA1 and THRIVE-AA2 trials were included in the analysis. […]
The SPRO was evaluated in 3 different ways: the percentage of responders, the change from baseline, and the percentage of subjects achieving a ≥2.0 point change from baseline.

The subject of data set [3] is subjects with AA. The data set can be described thus: Open-label extension (OLE) studies: SALT score. The format is in vivo, human. Conditions: 12 mg BID in OLE, placebo in the earlier studies, 52 weeks.
Excerpt: Subjects completing 24 weeks of treatment with […]
as §1
The OLE Efficacy Population is defined as all subjects who received at least one dose of deuruxolitinib and had at least one post-baseline SALT assessment in OLE. The data analyses include subjects' data from the qualifying trial. Missing SALT scores were not imputed. The number of subjects decreases over time due to missing data, patient discontinuations, or subjects not yet at the later timepoints. Any SALT data after a qualifying dose change in the OLE was censored for all figures included here, except those showing the overall treatment sequence. A “qualifying dose change” referred to herein can be placebo in any qualifying trial to any dose of deuruxolitinib in the OLE (includes subjects who switched doses), or any dose of deuruxolitinib in a qualifying trial to any dose of deuruxolitinib in the OLE. Various analyses using SALT scores were conducted to best estimate the overall long-term effect of deuruxolitinib considering the issues with dose changes and decreasing patient numbers over time. “Any Dose” analysis tracks all active subjects over time pooled across the two doses. […]

The nature of data set [4]: Renal impairment study: single dose PK of CTP-543 and metabolites C-21714, C-21717. Conditions: single 12 mg oral dose of CTP-543; normal renal function N = 8; geometric mean (geometric CV %). From the text: The study enrolled 8 subjects in the normal renal function cohort, and 8 subjects in the moderate impaired renal function cohort.
The primary endpoint of this study was single dose PK exposure parameters: Cmax, AUC(0-Tlast), and AUC(0-∞).
The secondary endpoints of this study were: • Adverse Events, clinical laboratory findings, physical examinations, ECGs, and vital signs. • Other PK parameters, such as, but not limited to: Tmax, λz, t1/2, CL/F, and Vz/F.
(§2) All subjects had samples collected for PK.
PK parameters were determined using non-compartmental analysis (NCA) methods based on individual plasma concentration-time data for all PK analytes.

The next data set has as its system plasma protein. The data set can be described thus: Renal impairment study: plasma protein binding of CTP-543. The format is in vitro ADME, human. The following applies: 2 hours post-dose; moderate renal impairment vs matched controls with normal renal function.
Excerpt: as §2

As to `[2H]C1([2H])C([C@@H](CC#N)n2cc(-c3ncnc4[nH]ccc34)cn2)C([2H])([2H])C([2H])([2H])C1([2H])[2H]` [CTP-543, (R)-3-(4-(7H-pyrrolo[2,3-d]pyrimidin-4-yl)-1H-pyrazol-1-yl)-3-(cyclopentyl-2,2,3,3,4,4,5,5-d8) propanenitrile], in the data set on subjects with AA [1] (OLE studies), the “number of serious treatment-related TEAEs” value is listed as “remains low” and the tolerability result is recorded as “generally well tolerated”. Also, the “subjects with related thrombotic events” value in the data set on subjects with AA [1] (all at the 12 mg BID dose, following ≥52 weeks of dosing) is recorded as “four”. The “treatment-emergent adverse event findings” value in the data set with subjects with AA [1] (integrated analyses) is listed as “consistent with the safety profiles observed for other JAK inhibitors”. Further, in data set [2] (12 mg BID (N = 127), Week 24, non-missing data), the “SPRO Responders: Yes” value is given as 62 (51.7) n (%). Besides, the “percentage of subjects with a ≥2 point change from baseline on SPRO” value in data set [2] (week 16, non-missing data) amounted to 57.4%. Moreover, in data set [2] (week 24, non-missing data), the “percentage of subjects with a ≥2 point change from baseline on SPRO” value is 61.7%. In addition, the “mean SALT score” value in the data set on subjects with AA [3] is recorded as 43.0. Moreover, the Clast in data set [4] was 0.898 (116.3) ng/mL. In addition, the “plasma protein binding, difference between cohorts” value with plasma protein is “no meaningful differences”.
